Measured values as given in patent US4054669A, “Phenolic menthene derivatives, therapeutic composition containing same and their use as therapeutic compositions” (Les Derives Resiniques et Terpeniques, priority 1975, dated 1977).
Converted amounts (≈) assume the structure as drawn.

How the values were obtained:
[1] = Acute toxicity, Karber and Behrens method, female IFFA-CREDO mice; conditions: mouse, in vivo
Description: Acute toxicity was determined by the intravenous and oral routes, using the Karber and Behrens method, in mice female IFFA-CREDO weighing 20 g (10 mice per dosage level).

[2] = system: Staphylococcus pyogenes aureus Oxford; experiment: Antibacterial activity, dilution method: Staphylococcus pyogenes aureus Oxford; type: cell-based; conditions: Difco bacto-peptone medium
Description: (§1) The tests were carried out according to the dilution method.
(§2) To determine the activity against Staphylococcus, Proteus vulgaris, Klebsiella pneumoniae and Escherichia coli, use was made of Difco bacto-peptone medium, and nutrient broth T was used to investigate the activity against Pneumococcus.

[3] = system: Streptococcus pyrogenes 5625; experiment: Antibacterial activity, dilution method: Streptococcus pyrogenes 5625; type: cell-based
Description: as §1, §2

[4] = system: Diplococcus pneumoniae 692; experiment: Antibacterial activity, dilution method: Diplococcus pneumoniae 692; type: cell-based; conditions: for MIC: Streptococcus pneumoniae, 692, nutrient broth T
Description: as §1, §2

Proteus vulgaris = experiment: Antibacterial activity, dilution method: Proteus vulgaris; type: cell-based; conditions: Difco bacto-peptone medium
Description: as §1, §2

Klebsiella pneumoniae = experiment: Antibacterial activity, dilution method: Klebsiella pneumoniae; type: cell-based; conditions: Difco bacto-peptone medium
Description: as §1, §2

Escherichia coli = experiment: Antibacterial activity, dilution method: Escherichia coli; type: cell-based; conditions: Difco bacto-peptone medium
Description: as §1, §2

gram-positive germs = experiment: Antibacterial activity, dilution method: gram-positive germs (summary); type: cell-based; conditions: in words
Description: as §1, §2

[5] = Solubility in physiological saline solution; type: physicochemical
[6] = Sensitivity to light and air; type: physicochemical

CC1CC=C(c2ccc(O)c(S(=O)(=O)O)c2)C(C(C)C)C1 (stereo not shown) [LJ 2148, sodium m.menthene-phenol-2-sulfonate]
LD50 ([1]; iv): 305 mg/kg | LD50 ([1]; po): 2900 mg/kg | MIC [2]: 28 µg/mL | MIC [3]: 10 µg/mL | MIC [4]: 3 µg/mL | activity against Diplococcus pneumoniae ([4]; in words): particularly active against Diplococcus pneumoniae | MIC (Proteus vulgaris): > 1000 µg/mL | MIC (Klebsiella pneumoniae): > 1000 µg/mL | MIC (Escherichia coli): > 1000 µg/mL | activity against gram-positive germs (gram-positive germs): active against gram-positive germs | solubility in physiological saline solution [5]: soluble in physiological saline solution

CC1CC=C(c2ccc(O)cc2)C(C(C)C)C1 (stereo not shown) [m.menthene-phenol, 4-(3'-m.menthen-4'-yl)-phenol]
sensitivity to light and air [6]: highly sensitive to light and air

Cc1c(C2=CCC(C)CC2C(C)C)cc(C(C)C)c(O)c1S(=O)(=O)O (stereo not shown) [LJ 2128, m.menthene-thymol-2-sulfonate]
LD50 ([1]; iv): 125 mg/kg | LD50 ([1]; po): 1920 mg/kg | MIC [2]: 140 µg/mL (≈ 382 µM) | MIC [3]: 16 µg/mL (≈ 43.7 µM) | MIC [4]: 12 µg/mL (≈ 32.7 µM) | MIC (Proteus vulgaris): > 1000 µg/mL | MIC (Klebsiella pneumoniae): > 1000 µg/mL | MIC (Escherichia coli): > 1000 µg/mL | activity against gram-positive germs (gram-positive germs): active against gram-positive germs | solubility in physiological saline solution [5]: soluble in physiological saline solution, giving a clear solution
